Source: patent US20150297600A1, “Method Of Achieving Increased Systemic Availability of Methotrexate” (Antares Pharma, Inc., priority 2014, published 2015)
Entries after “also recorded” stand apart in the source; their conditions may differ.

Key:
[1] = Multicenter three-way crossover study: oral vs subcutaneous (abdomen, thigh) methotrexate, blood drug levels for 24 hours and adverse events; type: in vivo, patients with adult RA
Description: A multicenter, three-way crossover study was conducted, wherein patients greater than or equal to 18 years old with adult RA undergoing treatment with MTX for three months or more were assigned to receive one of four dose levels of OTREXUP™ (subcutaneous methotrexate), 10 mg, 15 mg, 20 mg, and 25 mg weekly in a random sequence of three treatments: oral, subcutaneous into the abdomen and subcutaneous into the thigh. For 24 hours after the administration of each treatment, blood samples were collected to measure drug levels and injection sites were assessed.

[2] = Source text: An algorithm was developed to correlate a known oral dose of methotrexate to a jet injector dose. Table 1 illustrates the calculated correlation between oral doses and needle-assisted jet injector doses of methotrexate. The second column illustrates the precise subcutaneous dose calculated based on the algorithm, described in detail below. The third column represents the administrable dose, based on commercially available doses, closest in value to the precise calculated dose.
Based on the data set forth in table 1, a line equation of y=mx+b was developed to correlate an oral dose of methotrexate to an equivalent dose for use with a jet injector. In the present equation, illustrated by the graph shown in FIG. 1, the slope, m, was determined to be 0.6101 and a y-intercept, b, to be 2.9274. The correlation coefficient of the line, R^2, is 0.9594.

CN(Cc1cnc2nc(N)nc(N)c2n1)c1ccc(C(=O)N[C@@H](CCC(=O)O)C(=O)O)cc1 [methotrexate]
plasma levels of oral dosed methotrexate, 20 mg or 25 mg doses versus 15 mg doses ([1]; oral): no greater | systemic availability of methotrexate following oral dosing ([1]; oral, 10, 15, 20, 25 mg weekly, RA patients): do not provide increased systemic availability; also recorded: plateaus at 15 mg and greater | association of higher systemic methotrexate exposure with adverse events ([1]; short term study): not associated with increases in adverse events | slope, m, of line equation correlating oral dose to equivalent jet injector dose [2]: 0.6101 | y-intercept, b, of line equation correlating oral dose to equivalent jet injector dose [2]: 2.9274
